Measured values: article PMC10653643 (Journal of Enzyme Inhibition and Medicinal Chemistry, 2023)
Like-named read-outs stand apart in the source and are kept apart here.

Key:
[1] = target: H1N1 neuraminidase (NA), group-1 (Influenza A virus, UniProt P03468); assay: biochemical
[2] = system: A/PR/8/34 (H1N1) virus in MDCK cells; assay: microbe, parasite or virus in culture; type: cell-based, influenza A virus H1N1; details: read-out: EC50 towards influenza virus H1N1
[3] = system: A/Wisconsin/67/05 (H3N2) virus in MDCK cells; assay: microbe, parasite or virus in culture; type: cell-based, influenza A virus H3N2; details: for EC50: read-out: EC50 towards influenza virus H3N2
in vitro = details: dog
[4] = Influenza A virus, H1N1|PR/8, MDCK

H1N1 neuraminidase (NA), group-1, sequence (P03468 36-454 limits assumed): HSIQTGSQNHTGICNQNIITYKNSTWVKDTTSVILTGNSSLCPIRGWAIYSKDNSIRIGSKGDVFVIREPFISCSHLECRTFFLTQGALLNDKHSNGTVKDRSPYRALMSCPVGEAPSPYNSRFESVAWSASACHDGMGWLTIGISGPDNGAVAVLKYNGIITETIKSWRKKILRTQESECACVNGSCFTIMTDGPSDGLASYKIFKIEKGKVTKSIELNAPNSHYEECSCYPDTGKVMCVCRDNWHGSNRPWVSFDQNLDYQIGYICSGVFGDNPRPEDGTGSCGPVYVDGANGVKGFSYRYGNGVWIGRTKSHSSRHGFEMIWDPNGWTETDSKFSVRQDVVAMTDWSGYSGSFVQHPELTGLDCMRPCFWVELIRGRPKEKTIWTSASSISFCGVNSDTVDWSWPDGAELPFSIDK

## CCC(CC)O[C@@H]1C=C(C(=O)O)C[C@H](NCc2ccc(-c3cncnc3)cc2)[C@H]1NC(C)=O [3c, (3R,4R,5S)-4-acetamido-3-(pentan-3-yloxy)-5-((4-(pyrimidin-5-yl)benzyl)amino)cyclohex-1-ene-1-carboxylic acid]
[1]
  IC50: 12100 ± 1100 nM

## CCC(CC)O[C@@H]1C=C(C(=O)O)C[C@H](NCc2ccc(-c3cnc(Cl)nc3)cc2)[C@H]1NC(C)=O [3d, (3R,4R,5S)-4-acetamido-5-((4–(2-chloropyrimidin-5-yl)benzyl)amino)-3-(pentan-3-yloxy)cyclohex-1-ene-1-carboxylic acid]
[1]
  IC50: 4340 ± 360 nM

## CCC(CC)O[C@@H]1C=C(C(=O)O)C[C@H](NCc2ccc(-c3c(C)nc(N)nc3C)cc2)[C@H]1NC(C)=O [3e, (3R,4R,5S)-4-acetamido-5-((4–(2-amino-4,6-dimethylpyrimidin-5-yl)benzyl)amino)-3-(pentan-3-yloxy)cyclohex-1-ene-1-carboxylic acid]
[1]
  IC50: 8060 ± 480 nM

## CCC(CC)O[C@@H]1C=C(C(=O)O)C[C@H](NCc2ccc(N3CCC4(CC3)CN(C(=O)OC(C)(C)C)C4)cc2)[C@H]1NC(C)=O [6a, (3R,4R,5S)-4-acetamido-5-((4–(2-(tert-butoxycarbonyl)-2,7-diazaspiro[3.5]nonan-7-yl)benzyl)amino)-3-(pentan-3-yloxy)cyclohex-1-ene-1-carboxylic acid]
[1]
  IC50: 3940 ± 110 nM

## CCC(CC)O[C@@H]1C=C(C(=O)O)C[C@H](NCc2ccc(N3CCC4(CCN(C(=O)OC(C)(C)C)C4)C3)cc2)[C@H]1NC(C)=O (stereo partly drawn) [6b, (3R,4R,5S)-4-acetamido-5-((4–(7-(tert-butoxycarbonyl)-2,7-diazaspiro[4.4]nonan-2-yl)benzyl)amino)-3-(pentan-3-yloxy)cyclohex-1-ene-1-carboxylic acid]
[1]
  IC50: 400 ± 33 nM

## CCC(CC)O[C@@H]1C=C(C(=O)O)C[C@H](NCc2ccc(N3CC4(CCN(C(=O)OC(C)(C)C)CC4)C3)cc2)[C@H]1NC(C)=O [6c, (3R,4R,5S)-4-acetamido-5-((4–(7-(tert-butoxycarbonyl)-2,7-diazaspiro[3.5]nonan-2-yl)benzyl)amino)-3-(pentan-3-yloxy)cyclohex-1-ene-1-carboxylic acid]
[1]
  IC50: 1400 ± 73 nM

## CCC(CC)O[C@@H]1C=C(C(=O)O)C[C@H](NCc2ccc(N3CC4(CN(C(=O)OC(C)(C)C)C4)C3)cc2)[C@H]1NC(C)=O [6d, (3R,4R,5S)-4-acetamido-5-((4–(6-(tert-butoxycarbonyl)-2,6-diazaspiro[3.3]heptan-2-yl)benzyl)amino)-3-(pentan-3-yloxy)cyclohex-1-ene-1-carboxylic acid]
[1]
  IC50: 3100 ± 240 nM

## CCC(CC)O[C@@H]1C=C(C(=O)O)C[C@H](NCc2ccc(N3CCC4(CC3)OCCO4)cc2)[C@H]1NC(C)=O [6e, (3R,4R,5S)-5-((4–(1,4-dioxa-8-azaspiro[4.5]decan-8-yl)benzyl)amino)-4-acetamido-3-(pentan-3-yloxy)cyclohex-1-ene-1-carboxylic acid]
[1]
  IC50: 1990 ± 190 nM

## CCC(CC)O[C@@H]1C=C(C(=O)O)C[C@H](NCc2ccc(N3CC4C(C3)C4(C)C)cc2)[C@H]1NC(C)=O (stereo partly drawn) [6f, (3R,4R,5S)-4-acetamido-5-((4–(6,6-dimethyl-3-azabicyclo[3.1.0]hexan-3-yl)benzyl)amino)-3-(pentan-3-yloxy)cyclohex-1-ene-1-carboxylic acid]
[1]
  IC50: 430 ± 36 nM

## CCC(CC)O[C@@H]1C=C(C(=O)O)C[C@H](NCc2ccc(N3CC4CC4C3)cc2)[C@H]1NC(C)=O (stereo partly drawn) [6g, (3R,4R,5S)-5-((4–(3-azabicyclo[3.1.0]hexan-3-yl)benzyl)amino)-4-acetamido-3-(pentan-3-yloxy)cyclohex-1-ene-1-carboxylic acid]
[1]
  IC50: 190 ± 9.6 nM
[2]; [4]
  EC50: 30 ± 30 nM
[3]
  fold activity enhancement over zanamivir (ZA) against H3N2 virus: ~2 fold
[3]; Influenza A virus, H3N2, MDCK
  EC50: 160 ± 80 nM
In vitro
  CC50: > 250000 nM

## CCC(CC)O[C@@H]1C=C(C(=O)O)C[C@H](NCc2ccc(N3CC4CCCC4C3)cc2)[C@H]1NC(C)=O (stereo partly drawn) [6h, (3R,4R,5S)-4-acetamido-5-((4-(hexahydrocyclopenta[c]pyrrol-2(1H)-yl)benzyl)amino)-3-(pentan-3-yloxy)cyclohex-1-ene-1-carboxylic acid]
[1]
  IC50: 300 ± 1.6 nM

## CCC(CC)O[C@@H]1C=C(C(=O)O)C[C@H](NCc2ccc(N3CC4CCCCC4C3)cc2)[C@H]1NC(C)=O (stereo partly drawn) [6i, (3R,4R,5S)-4-acetamido-5-((4-(octahydro-2H-isoindol-2-yl)benzyl)amino)-3-(pentan-3-yloxy)cyclohex-1-ene-1-carboxylic acid]
[1]
  IC50: 150 ± 31 nM
[2]; [4]
  EC50: 30 ± 30 nM
[3]; Influenza A virus, H3N2, MDCK
  EC50: 320 ± 80 nM
In vitro
  CC50: > 250000 nM

## CCC(CC)O[C@@H]1C=C(C(=O)O)C[C@H](NCc2ccc(N3CCC[C@H]3C)cc2)[C@H]1NC(C)=O [6k, (3R,4R,5S)-4-acetamido-5-((4-((R)-2-methylpyrrolidin-1-yl)benzyl)amino)-3-(pentan-3-yloxy)cyclohex-1-ene-1-carboxylic acid]
[1]
  IC50: 84 ± 7.2 nM
[2]; [4]
  EC50: 20 ± 10 nM
[3]
  fold activity enhancement over OSC against H3N2 virus: ~3 fold
  fold activity enhancement over zanamivir (ZA) against H3N2 virus: ~2 fold
[3]; Influenza A virus, H3N2, MDCK
  EC50: 120 ± 30 nM
In vitro
  CC50: > 250000 nM

## CCC(CC)O[C@@H]1C=C(C(=O)O)C[C@H](NCc2ccc(N3CCC3)cc2)[C@H]1NC(C)=O [6n, (3R,4R,5S)-4-acetamido-5-((4-(azetidin-1-yl)benzyl)amino)-3-(pentan-3-yloxy)cyclohex-1-ene-1-carboxylic acid]
[1]
  IC50: 140 ± 10 nM

## CCC(CC)O[C@@H]1C=C(C(=O)O)C[C@H](NCc2ccc(N(C)CC)cc2)[C@H]1NC(C)=O [6o, (3R,4R,5S)-4-acetamido-5-((4-(ethyl(methyl)amino)benzyl)amino)-3-(pentan-3-yloxy)cyclohex-1-ene-1-carboxylic acid]
[1]
  IC50: 360 ± 18 nM

## CCC(CC)O[C@@H]1C=C(C(=O)O)C[C@H](N)[C@H]1NC(C)=O [OSC, oseltamivir carboxylate, reference compound]
[2]
  EC50: […]
[3]
  EC50: 360 ± 160 nM
In vitro
  CC50: > 250000 nM

## CC(=O)N[C@H]1[C@H]([C@H](O)[C@H](O)CO)OC(C(=O)O)=C[C@@H]1N=C(N)N [ZA, zanamivir, reference compound]
[2]; [4]
  EC50: […]
[3]; Influenza A virus, H3N2, MDCK
  EC50: 270 ± 30 nM
In vitro
  CC50: > 250000 nM
